Experiment: Dissolution of the powder in ViaSpan preservation medium
Type: physicochemical
Conditions: in 10 ml of ViaSpan preservation medium, 100×-concentrated solution
Protocol: The production process consists in taking up 15.77 mg of propane diamine-β-CD in powder form in 10 ml of the preservation medium ViaSpan® to obtain a 100×-concentrated solution.
The preparation of the close mixture is carried out according to the following operating procedure: • 4.57 mg of resveratrol is added to 9 ml of a solution that contains 2495.3 mg of propane diamine-β-CD in water, • The pH is adjusted to 7.4, • The whole is stirred for 5 to 24 hours at 24° C. and in the absence of light, • The solution is next filtered in a Millipore hydrophilic PVDF filter and then freeze-dried to provide a powder that contains a close mixture whose resveratrol/propane diamine-β-CD molar ratio is 1/111, • The freeze-dried close mixture is preserved in amber bottles at 4° C., • 15.8 mg of the close mixture is then taken up in 10 ml of the ViaSpan® preservation medium to obtain a 100×-concentrated solution.

Dissolution of the powder: dissolves instantaneously
SMILES: NCCCNCC1OC2OC3C(CO)OC(OC4C(CO)OC(OC5C(CO)OC(OC6C(CO)OC(OC7C(CO)OC(OC8C(CO)OC(OC1C(O)C2O)C(O)C8O)C(O)C7O)C(O)C6O)C(O)C5O)C(O)C4O)C(O)C3O (stereo not drawn) [propane diamine-β-CD, 6A-(3-aminopropylamino)-6A-deoxy-cyclomatoheptaose]

Source: US20090123904A1, “COMPOSITION FOR PRESERVING CELLS, TISSUES, OR ORGANS, PRODUCTION PROCESS AND USES” (BIOCYDEX, SOCIETE PAR ACTIONS SIMPLIFIEE, priority 2007, published 2009)
